{"source": "ChEMBL document CHEMBL3098121", "about": "“Dactyloditerpenol acetate, a new prenylbisabolane-type diterpene from Aplysia dactylomela with significant in vitro anti-neuroinflammatory activity” (Bioorg Med Chem Lett, 2014)", "key": {"[1]": {"test_system": "Mycobacterium tuberculosis", "assay": "Antimycobacterial activity against Mycobacterium tuberculosis H37Rv", "assay_type": "functional"}, "[2]": {"assay": "Antineuroinflammatory activity in rat brain neonatal microglia assessed as inhibition of LPS-induced TXB2 generation", "assay_type": "functional, tissue-based"}, "[3]": {"test_system": "A2058", "assay": "Cytotoxicity against human A2058 cells", "assay_type": "functional"}, "[4]": {"assay": "Cytotoxicity against rat brain neonatal microglia by LDH release assay"}, "[5]": {"assay": "Antineuroinflammatory activity in rat brain neonatal microglia assessed as inhibition of LPS-induced superoxide anion generation", "assay_type": "functional, tissue-based"}, "[6]": {"test_system": "DU-145", "assay": "Cytotoxicity against human DU145 cells", "assay_type": "functional"}, "[7]": {"assay": "Antineuroinflammatory activity in rat brain neonatal microglia", "assay_type": "functional, tissue-based"}}}
{"smiles": "CC(=O)O[C@@H](CC[C@@H](C)[C@@H]1CCC(C)=C[C@H]1O)[C@](C)(O)CCC=C(C)C", "values": [{"measurement": "MIC", "setting": "[1]", "value": 59.4, "unit": "µg/mL"}, {"measurement": "IC50", "setting": "[2]", "value": 0.4, "unit": "µM"}, {"measurement": "Activity", "setting": "[3]", "value": 67, "unit": "%"}, {"measurement": "IC50", "setting": "[4]", "value": "> 10", "unit": "µM"}, {"measurement": "IC50", "setting": "[5]", "value": 1, "unit": "µM"}, {"measurement": "Activity", "setting": "[6]", "value": 77, "unit": "%"}]}
{"smiles": "CC(=O)Oc1ccccc1C(=O)O", "note": "[ASPIRIN]", "values": [{"measurement": "IC50", "setting": "[7]; read-out: IC50", "value": 0.0032, "unit": "µM"}]}
{"smiles": "CC(C(=O)O)c1ccc(-c2ccccc2)c(F)c1", "note": "(stereo not drawn) [FLURBIPROFEN]", "values": [{"measurement": "IC50", "setting": "[7]; read-out: IC50(app)", "value": 0.1, "unit": "µM"}]}
